# Test system: yeast genes (expressed mRNA)
# Test: DNA chip measurement of expressed mRNA of yeast genes after culture with a toxic chemical substance
# Assay type: cell-based, Saccharomyces cerevisiae S288C
# Outline: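 Expression is given as treated/untreated fluorescence ratio on a whole-genome yeast DNA chip, a ratio of two or more being significant. Log-phase S288C cultures in YPD at 25 °C received the chemical for 2 h at a dose that slows growth without killing. mRNA was reverse-transcribed with Cy3- or Cy5-dUTP.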
structure (smiles),measurement,setting,value
"COc1cc(CNC(=O)CCCCC=CC(C)C)ccc1O [(12), 8-Methyl-N-vanillyl-6-nonenamide]",The level of expressed mRNA in the presence of chemical substance/The level of expressed mRNA in the absence of chemical substance,"yeast gene YAL012W, metabolism protein genes",1.1
same,The level of expressed mRNA in the presence of chemical substance/The level of expressed mRNA in the absence of chemical substance,"yeast gene YAL034C, cultured two hours with substance",2.8
same,The level of expressed mRNA in the presence of chemical substance/The level of expressed mRNA in the absence of chemical substance,"yeast gene YAL053W, cultured two hours with substance",0.6
same,The level of expressed mRNA in the presence of chemical substance/The level of expressed mRNA in the absence of chemical substance,yeast gene YAL054C,1.0
same,The level of expressed mRNA in the presence of chemical substance/The level of expressed mRNA in the absence of chemical substance,"yeast gene YAR028W, cultured two hours with substance",0.8
same,The level of expressed mRNA in the presence of chemical substance/The level of expressed mRNA in the absence of chemical substance,yeast gene YBL001C,0.7
same,The level of expressed mRNA in the presence of chemical substance/The level of expressed mRNA in the absence of chemical substance,"yeast gene YBL048W, cultured two hours with substance",1.2
same,The level of expressed mRNA in the presence of chemical substance/The level of expressed mRNA in the absence of chemical substance,"yeast gene YBL107C, cultured two hours with substance",1.4
same,The level of expressed mRNA in the presence of chemical substance/The level of expressed mRNA in the absence of chemical substance,yeast gene YBR072W (stress protein genes),16.3
same,The level of expressed mRNA in the presence of chemical substance/The level of expressed mRNA in the absence of chemical substance,"yeast gene YBR203W, cultured two hours with substance",1.6
same,The level of expressed mRNA in the presence of chemical substance/The level of expressed mRNA in the absence of chemical substance,yeast gene YBR222C,0.9
same,The level of expressed mRNA in the presence of chemical substance/The level of expressed mRNA in the absence of chemical substance,yeast gene YBR256C,1.7
same,The level of expressed mRNA in the presence of chemical substance/The level of expressed mRNA in the absence of chemical substance,"yeast gene YBR273C, cultured two hours with substance",0.8
same,The level of expressed mRNA in the presence of chemical substance/The level of expressed mRNA in the absence of chemical substance,yeast gene YCL009C,1.7
same,The level of expressed mRNA in the presence of chemical substance/The level of expressed mRNA in the absence of chemical substance,yeast gene YCR037C,0.7
same,The level of expressed mRNA in the presence of chemical substance/The level of expressed mRNA in the absence of chemical substance,yeast gene YCR048W,0.9
same,The level of expressed mRNA in the presence of chemical substance/The level of expressed mRNA in the absence of chemical substance,"yeast gene YDL072C, cultured two hours with substance",1.2
same,The level of expressed mRNA in the presence of chemical substance/The level of expressed mRNA in the absence of chemical substance,"yeast gene YDL110C, cultured two hours with substance",1.5
same,The level of expressed mRNA in the presence of chemical substance/The level of expressed mRNA in the absence of chemical substance,"yeast gene YDL174C, cultured for two hours with substance",2.8
same,The level of expressed mRNA in the presence of chemical substance/The level of expressed mRNA in the absence of chemical substance,"yeast gene YDL204W, cultured two hours with substance",0.9
same,The level of expressed mRNA in the presence of chemical substance/The level of expressed mRNA in the absence of chemical substance,"yeast gene YDL222C, cultured two hours with substance",1.0
same,The level of expressed mRNA in the presence of chemical substance/The level of expressed mRNA in the absence of chemical substance,"yeast gene YDR003W, cultured two hours with substance",0.8
same,The level of expressed mRNA in the presence of chemical substance/The level of expressed mRNA in the absence of chemical substance,yeast gene YDR009W,1.0
same,The level of expressed mRNA in the presence of chemical substance/The level of expressed mRNA in the absence of chemical substance,yeast gene YDR019C,0.7
same,The level of expressed mRNA in the presence of chemical substance/The level of expressed mRNA in the absence of chemical substance,"yeast gene YDR031W, cultured two hours with substance",0.9
same,The level of expressed mRNA in the presence of chemical substance/The level of expressed mRNA in the absence of chemical substance,"yeast gene YDR070C, cultured two hours with substance",4.3
same,The level of expressed mRNA in the presence of chemical substance/The level of expressed mRNA in the absence of chemical substance,"yeast gene YDR330W, cultured two hours with substance",1.0
same,The level of expressed mRNA in the presence of chemical substance/The level of expressed mRNA in the absence of chemical substance,"yeast gene YDR391C, cultured two hours with substance",1.4
same,The level of expressed mRNA in the presence of chemical substance/The level of expressed mRNA in the absence of chemical substance,yeast gene YDR406W (transport facilitation protein gene),3.9
same,The level of expressed mRNA in the presence of chemical substance/The level of expressed mRNA in the absence of chemical substance,yeast gene YDR410C,0.9
same,The level of expressed mRNA in the presence of chemical substance/The level of expressed mRNA in the absence of chemical substance,"yeast gene YDR411C, cultured two hours with substance",1.5
same,The level of expressed mRNA in the presence of chemical substance/The level of expressed mRNA in the absence of chemical substance,"yeast gene YDR476C, cultured two hours with substance",2.1
same,The level of expressed mRNA in the presence of chemical substance/The level of expressed mRNA in the absence of chemical substance,"yeast gene YDR486C, cultured two hours with substance",1.3
same,The level of expressed mRNA in the presence of chemical substance/The level of expressed mRNA in the absence of chemical substance,"yeast gene YDR497C, metabolism protein genes",0.9
same,The level of expressed mRNA in the presence of chemical substance/The level of expressed mRNA in the absence of chemical substance,"yeast gene YDR511W, cultured two hours with substance",0.8
same,The level of expressed mRNA in the presence of chemical substance/The level of expressed mRNA in the absence of chemical substance,"yeast gene YDR534C, cultured two hours with substance",1.5
same,The level of expressed mRNA in the presence of chemical substance/The level of expressed mRNA in the absence of chemical substance,"yeast gene YDR545W, cultured two hours with substance",0.9
same,The level of expressed mRNA in the presence of chemical substance/The level of expressed mRNA in the absence of chemical substance,"yeast gene YEL001C, cultured two hours with substance",1.1
same,The level of expressed mRNA in the presence of chemical substance/The level of expressed mRNA in the absence of chemical substance,"yeast gene YER004W, cultured two hours with substance",1.7
same,The level of expressed mRNA in the presence of chemical substance/The level of expressed mRNA in the absence of chemical substance,yeast gene YER026C,1.7
same,The level of expressed mRNA in the presence of chemical substance/The level of expressed mRNA in the absence of chemical substance,"yeast gene YER035W, cultured two hours with substance",1.1
same,The level of expressed mRNA in the presence of chemical substance/The level of expressed mRNA in the absence of chemical substance,"yeast gene YER038C, cultured two hours with substance",0.9
same,The level of expressed mRNA in the presence of chemical substance/The level of expressed mRNA in the absence of chemical substance,"yeast gene YER079W, cultured two hours with substance",0.9
same,The level of expressed mRNA in the presence of chemical substance/The level of expressed mRNA in the absence of chemical substance,"yeast gene YER096W, metabolism protein genes",0.9
same,The level of expressed mRNA in the presence of chemical substance/The level of expressed mRNA in the absence of chemical substance,"yeast gene YER106W, cultured two hours with substance",0.9
same,The level of expressed mRNA in the presence of chemical substance/The level of expressed mRNA in the absence of chemical substance,"yeast gene YER158C, cultured two hours with substance",1.0
same,The level of expressed mRNA in the presence of chemical substance/The level of expressed mRNA in the absence of chemical substance,"yeast gene YER163C, cultured two hours with substance",1.0
same,The level of expressed mRNA in the presence of chemical substance/The level of expressed mRNA in the absence of chemical substance,"yeast gene YER175C, cultured two hours with substance",0.9
same,The level of expressed mRNA in the presence of chemical substance/The level of expressed mRNA in the absence of chemical substance,"yeast gene YFL006W, cultured two hours with substance",1.2
same,The level of expressed mRNA in the presence of chemical substance/The level of expressed mRNA in the absence of chemical substance,"yeast gene YFL010C, cultured two hours with substance",1.5
